In US12385839B2, “Use of protein in predicting drug properties” (priority 2021, dated 2025):
Read-outs that look alike come from different tables or passages of the source.

How the values were obtained:
[1] = molecular target: T1, human serum albumin (HSA) (Homo sapiens, UniProt P02768); test: Fluorescence emission spectrum (quenching) of HSA with carbamate pesticides; format: binding; conditions: for Ksv (37°) / ΔG(37°) / Binding distance/r / Number of binding sites/n: modelling table; for Kq / Ksv / n (number of binding sites) / Kd: pH 7.4; for R (binding distance): Förster energy transfer; for fluorescence of HSA quenched by pesticide: titration of pesticide; for ΔH^0 / ΔS^0: Van't Hoff, 296-310 K
T1 sequence (P02768 25-609): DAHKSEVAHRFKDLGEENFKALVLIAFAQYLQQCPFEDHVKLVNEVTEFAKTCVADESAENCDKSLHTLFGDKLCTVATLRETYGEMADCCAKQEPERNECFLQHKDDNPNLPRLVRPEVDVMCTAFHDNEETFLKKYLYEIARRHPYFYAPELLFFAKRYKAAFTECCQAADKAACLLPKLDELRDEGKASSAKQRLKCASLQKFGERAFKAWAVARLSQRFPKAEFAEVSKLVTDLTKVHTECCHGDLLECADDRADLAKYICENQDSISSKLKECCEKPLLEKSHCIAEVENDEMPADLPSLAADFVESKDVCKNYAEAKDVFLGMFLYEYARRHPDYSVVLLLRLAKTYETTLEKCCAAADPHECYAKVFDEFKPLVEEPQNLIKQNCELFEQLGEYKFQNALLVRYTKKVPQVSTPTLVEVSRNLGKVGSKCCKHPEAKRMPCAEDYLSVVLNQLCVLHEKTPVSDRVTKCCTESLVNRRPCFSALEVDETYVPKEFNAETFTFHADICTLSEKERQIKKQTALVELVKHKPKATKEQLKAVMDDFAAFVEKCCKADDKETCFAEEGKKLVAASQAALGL
Protocol: the mixed solution to be tested was preheated at […] for 3 minutes, and the emission spectrum of HSA with carbamate pesticides was measured at 300-500 nm . The excitation wavelength was set at 280 nm , and the slit width for both excitation and emission was 15 nm; the HSA concentration was kept constant at 5×10^−7 M, and the pesticide concentration was (0-105)×10^−7 M.
The internal filtering effect of fluorescence signal was corrected according to the following formula: Fcor=Fobsexp[(Aex+Aem)/2] (1);
in this formula, Fcor and Fobs represent corrected fluorescence signal and observed fluorescence signal, respectively, and Aex and Aem represent absorbance of the mixed solution to be tested at excitation wavelength and emission wavelengths, respectively; the quenching constant, number of binding sites, binding constant, free energy and binding distance of different drugs were obtained by fluorescence emission spectra, and a BP neural network model was obtained. Specifically, they were obtained as follows:
There is a linear relationship between F0/F and [Q] to distinguish whether it is static quenching or dynamic quenching. The fluorescence quenching data are analyzed by Stern-Volmer equation to clarify the quenching mechanism: F0/F=1+KSV[Q]=1+Kqτ0[Q] (2);
in the formula, F0 and F are fluorescence signals […] quencher, respectively. Ksv is Stern-Volmer quenching constant; Kq is a quenching rate constant of biomolecules; τ0 is the average lifetime of biomolecules without quencher (about 10^−8 s); [Q] is the concentration of quencher.
The maximum dynamic quenching rate constant of all kinds of quenchers on polymers was 2.0×10^10 L·mol^−1·s^−1. Static quenching and dynamic quenching could be judged according to this value. If K^q was greater than 2.0×10^10 L·mol^−1·s^−1, it belonged to static quenching. Otherwise, it belonged to dynamic quenching.
In this part, the binding sites and binding constants between carbamate pesticides and HSA were calculated. The following formula was used to calculate the number of binding sites (n) and the binding constant (Ka) of carbamate pesticides and HSA: log[(F0−F)/F]=log Ka+nlog[Q] (3);
The interactions between biological molecules and drug molecules were weak intermolecular interactions, including hydrogen bonds, van der Waals forces, electrostatic forces and hydrophobic interactions. By using Van't Hoff equation, the thermodynamic constants of drug-protein interaction were obtained, and the main types of drug-protein interaction were judged according to the changes of binding constants under different conditions. LnK=−ΔH^0/RT+ΔS^0/R (4); ΔG^0=ΔH^0−TΔS^0 (5);
There is a relationship among energy transfer efficiency E, distance r between energy donor and energy receptor and energy transfer distance R0. E=1−F/F0=R0^6/(R0^6+r^6) (6);
E represents the transfer efficiency between donor and receptor, r is the average distance between donor and receptor, and R0 is the critical distance when the transfer efficiency is 50%. R0^6=8.79×10^−K^2N^−4φJ (7)
K^2 is the orientation related to the geometry of donor and receptor of dipole. For random orientation in fluid, K^2=2/3; N is the average refractive index of the medium in the wavelength range with obvious spectral overlap, and the refractive index of water and organic matter is 1.336; φ is the quantum yield of donor, and the quantum yield of tryptophan in HSA is about 0.118; J represents the influence of spectral overlap between the emission spectrum of the donor and the absorption spectrum of the receptor, and can be calculated by the following formula: j=ΣF(λ)ϵ(λ)λ^4Δλ/ΣF(λ) Δλ (8);
F(λ) is the corrected fluorescence signal of the donor in the wavelength range from λ to (λ+Δλ), while ϵ(λ) is the extinction coefficient of the receptor at λ.

[2] = molecular target: T1, human serum albumin (HSA); test: Circular dichroism spectrum, secondary structure (α-helix content) of HSA; conditions: HSA 2×10^−6 M
Protocol: the mixed solution to be tested was preheated at […] for 2-5 minutes, and the CD spectrum of HSA was recorded in the wavelength range of 200-500 nm . The concentration of HSA was kept at 2×10^−6 M, and the pesticide was (0-20)×10^−6 m. Firstly, HSA was measured, and then the ratio of HSA to pesticides needed to be determined specifically, which was preliminarily determined according to the ratio of 1:1, 1:2 and 1:3.
According to the following equation, the result of CD spectrum was usually expressed as the mean residue ellipticity (MRE), and the unit was deg·cm^2·dmol^−1. MRE=ObservedCD(mdeg)/(10Cpnl) (9);
in which Cp is the molar concentration of protein, n is the number (585) of amino acid residues, and 1 is the path length (1 mm). The α helicity of free and bound HSA is calculated from MRE values using the following formula: α−Helix(%)=[(−MRE208−4000)×100]/(33000-4000) (10)
in which the MRE208 is the MRE value observed at 208 nm , 4000 is the MRE value of random coil conformation at 208 nm , and […] is the MRE value of pure α helix at 208 nm .

[3] = cited from earlier work; for LD50: modelling table; for Toxicity: toxicity grade by LD50, trailing figure = number of pesticides in group

Compound | Ksv (37°) [1] | ΔG(37°) [1] | ΔG^0 ([1]; 296 K) [kcal/mol] | Kq ([1]; 296 K) | Ksv ([1]; 296 K) | n (number of binding sites) ([1]; 296 K) | ΔG^0 ([1]; 303 K) [kcal/mol] | Kq ([1]; 303 K) | Ksv ([1]; 303 K) | n (number of binding sites) ([1]; 303 K) | ΔG^0 ([1]; 310 K) [kcal/mol] | R (binding distance) ([1]; 310 K) [nm] | Kq ([1]; 310 K) | Ksv ([1]; 310 K) | n (number of binding sites) ([1]; 310 K) | fluorescence of HSA quenched by pesticide ([1]; 310 K) | ΔH^0 [1] [kcal/mol] | ΔS^0 [1] [J · mol^−1 · K^−1] | Binding distance/r [1] | Number of binding sites/n [1] | further results
CNC(=O)Oc1cccc2c1OC(C)(C)C2 [Carbofuran, carbofuran] | 87696.31575 | −25.15 | -5.0459 | 5.563 ± 0.123 10^12 M^−1s^−1 | 5.563 ± 0.123 10^4 M^−1 | 0.797 ± 0.002 | -5.5287 | 7.239 ± 0.082 10^12 M^−1s^−1 | 7.239 ± 0.082 10^4 M^−1 | 0.822 ± 0.002 | -6.0117 | 1.938 | 8.770 ± 0.088 10^12 M^−1s^−1 | 8.770 ± 0.088 10^4 M^−1 | 0.862 ± 0.002 | quenched | 15.374 | 288.639 | 1.938 | 0.8616 | Kd ([1]; Ka (binding constant), 296 K): 185 µM; Kd ([1]; Ka (binding constant), 303 K): 107 µM; Kd ([1]; Ka (binding constant), 310 K): 56.7 µM; α-helix contents ([2]; 5:1 (Pesticide:HSA)): 51.483%; α-helix contents ([2]; 10:1 (Pesticide:HSA)): 48.304%; LD50 [3]: 5 mg/kg; Toxicity [3]: Highly
CCSCc1ccccc1OC(=O)NC [Ethiofencarb, ethiofencarb] | 41346.56830 | −17.7 | -3.4355 | 2.562 ± 0.137 10^12 M^−1s^−1 | 2.562 ± 0.137 10^4 M^−1 | 0.613 ± 0.003 | -3.8329 | 3.301 ± 0.074 10^12 M^−1s^−1 | 3.301 ± 0.074 10^4 M^−1 | 0.645 ± 0.009 | -4.2302 | 2.363 | 4.135 ± 0.166 10^12 M^−1s^−1 | 4.135 ± 0.166 10^4 M^−1 | 0.674 ± 0.002 | quenched | 13.365 | 237.483 | 2.363 | 0.6742 | Kd ([1]; Ka (binding constant), 296 K): 2920 µM; Kd ([1]; Ka (binding constant), 303 K): 1710 µM; Kd ([1]; Ka (binding constant), 310 K): 1050 µM; α-helix contents ([2]; 5:1 (Pesticide:HSA)): 49.087%; α-helix contents ([2]; 10:1 (Pesticide:HSA)): 48.340%; LD50 [3]: 200 mg/kg; Toxicity [3]: Moderately
CNC(=O)Oc1ccccc1C(C)C [Isoprocarb, isoprocarb] | 30154.52708 | −18.11 | -3.6472 | 2.175 ± 0.070 10^12 M^−1s^−1 | 2.175 ± 0.070 10^4 M^−1 | 0.669 ± 0.004 | -3.9873 | 2.758 ± 0.048 10^12 M^−1s^−1 | 2.758 ± 0.048 10^4 M^−1 | 0.689 ± 0.004 | -4.3274 | 2.338 | 3.015 ± 0.043 10^12 M^−1s^−1 | 3.015 ± 0.043 10^4 M^−1 | 0.712 ± 0.009 | quenched | 10.734 | 203.281 | 2.338 | 0.7116 | Kd ([1]; Ka (binding constant), 296 K): 2050 µM; Kd ([1]; Ka (binding constant), 303 K): 1300 µM; Kd ([1]; Ka (binding constant), 310 K): 900 µM; α-helix contents ([2]; 5:1 (Pesticide:HSA)): 50.878%; α-helix contents ([2]; 10:1 (Pesticide:HSA)): 49.242%; LD50 [3]: 450 mg/kg; Toxicity [3]: Moderately
CNC(=O)ON=C(C)SC [Methomyl, methomyl] | 52883.69408 | −21.14 | -3.8554 | 3.401 ± 0.068 10^12 M^−1s^−1 | 3.401 ± 0.068 10^4 M^−1 | 0.661 ± 0.003 | -4.4534 | 4.025 ± 0.136 10^12 M^−1s^−1 | 4.025 ± 0.136 10^4 M^−1 | 0.727 ± 0.008 | -5.0514 | 2.145 | 5.288 ± 0.093 10^12 M^−1s^−1 | 5.288 ± 0.093 10^4 M^−1 | 0.766 ± 0.002 | quenched | 21.433 | 357.453 | 2.145 | 0.7657 | Kd ([1]; 296 K, read-out: Ka (binding constant)): 1460 µM; Kd ([1]; 303 K, read-out: Ka (binding constant)): 579 µM; Kd ([1]; 310 K, read-out: Ka (binding constant)): 283 µM; α-helix contents ([2]; 5:1 (Pesticide:HSA)): 50.756%; α-helix contents ([2]; 10:1 (Pesticide:HSA)): 49.970%; LD50 [3]: 14.7 mg/kg; Toxicity [3]: Highly
CNC(=O)Oc1cccc(C)c1 [Metolcarb, metolcarb] | 44415.60221 | −16.22 | -3.1766 | 3.261 ± 0.020 10^12 M^−1s^−1 | 3.261 ± 0.020 10^4 M^−1 | 0.564 ± 0.012 | -3.5268 | 3.415 ± 0.159 10^12 M^−1s^−1 | 3.415 ± 0.159 10^4 M^−1 | 0.587 ± 0.001 | -3.8772 | 2.525 | 4.442 ± 0.118 10^12 M^−1s^−1 | 4.442 ± 0.118 10^4 M^−1 | 0.616 ± 0.003 | quenched | 11.633 | 209.338 | 2.525 | 0.6156 | Kd ([1]; Ka (binding constant), 296 K): 4450 µM; Kd ([1]; Ka (binding constant), 303 K): 2950 µM; Kd ([1]; Ka (binding constant), 310 K): 1820 µM; α-helix contents ([2]; 5:1 (Pesticide:HSA)): 53.549%; α-helix contents ([2]; 10:1 (Pesticide:HSA)): 53.215%; LD50 [3]: 268 mg/kg; Toxicity [3]: Moderately
